What was measured:
[1] = system: WT intestinal organoids; test: Intestinal organoid culture: growth and proliferation of WT organoids; assay type: cell-based, mouse; settings: for stem cell number in WT organoids: organoids from WT, Lgr5-GFP mouse crypts; for growth and proliferation of WT organoids: Stattic 2 μM, SB242235 1 μM; for effect on ISC functions in WT organoids: blocking STAT3 or MAPK activity
Procedure: (§1) Crypt isolation and organoid culture were performed as described previously (Nan Gao's paper, 2015, Development). Crypts were isolated from the mouse small intestine. 150-200 crypts were embedded in growth factor-reduced Matrigel and cultured with mouse ENR organoid culture medium containing 1×B27 (Life Tech Gibco), 1×N2 (Life Tech Gibco), 1 mM N-acetylcysteine (Sigma), 50 ng/ml of EGF (Life Technology), 100 ng/ml of Noggin (R&D System), and 1 μg/ml of R-spondin 1 (R&D system). Recombinant mouse LIF (Millipore), wortmannin (Cell Signaling Technology) and CHIR99021 (Stemgent) were used for organoid treatment.
(§2) The size organoid was evaluated by quantify surface area of horizontal cross section of organoids acquired from multiple random non-overlapping pictures by an Olympus inverted microscope using ImageJ software. The vertical direction of expansion was not included in the calculations. n≥30/group. The percentages of budding organoids were analyzed by light microscopy at different days during organoid culture. n≥100/group.
(§3) IF staining of organoids was performed as previously described (Gao and Kaestner, 2010). In brief, organoids were fixed with 4% paraformaldehyde for 10 min, treated with 0.5% TritonX-100 for 10 min and blocked with 10% goat serum in IF buffer (0.1% BSA, 0.2% Triton X100, 0.05% Tween-20, 0.05% NaN3 in PBS) for 2 hours. Organoids were incubated with anti-Ki67 (Abcam, ab16667, 1:200 dilution) and anti-GFP (Abcam, ab6673, 1:1000 dilution) antibodies overnight at room temperature and then incubated with Alexa Fluor® 555 Goat Anti-Rabbit IgG (H+L) (Invitrogen, 1:800 dilution) and Alexa Fluor® 488 Donkey Anti-Goat IgG (H+L) (Invitrogen, 1:200 dilution), respectively to detect Ki67 and Lgr5-EGFP. Nuclei were stained with 4′, 6-diamidino-2-phenylindole (DAPI; Vector).

[2] = system: LIF KO intestinal organoids; test: Intestinal organoid culture: growth and proliferation of LIF KO organoids; assay type: cell-based, mouse; settings: for stem cell number in LIF KO organoids: organoids from LIF KO, Lgr5-GFP mouse crypts; for growth and proliferation of LIF KO organoids: Stattic 2 μM, SB242235 1 μM
Procedure: as §1, §2, §3

[3] = system: β-catenin target genes Axin2, Ascl1, Olfm4 and Lgr5; test: Quantitative real-time PCR of β-catenin target genes in organoids; assay type: cell-based, mouse; settings: normalized with β-actin
Procedure: Total RNA from mice small intestine tissues or organoids was prepared by using an RNeasy kit (Qiagen). Quantitative real-time PCR assays were performed as described previously. The expression of genes was normalized with the β-actin gene. Data was obtained from 5 independent biological samples with 3 technical replicates. To investigate whether LIF regulates ISC function through upregulating the AKT signaling, WT and LIF KO organoids were treated with Wortmannin, a PI3K inhibitor that inhibits the PI3K/Akt signaling, and Capivasertib, a specific AKT inhibitor (31, 32). […] Further, we directly examined the effects of Capivasertib and SC79 on β-catenin activity by measuring the mRNA levels of its target genes in WT and LIF KO organoids. […] We further treated organoids formed by WT or LIF KO; Lgr5-GFP mouse crypts with Wortmannin, Capivasertib or SC79. […] We further examined whether blocking GSK3β can improve the growth of LIF KO organoids.

[4] = system: intestinal epithelium; test: Regeneration of intestinal epithelium after irradiation in inducible LIF-tgflox/+/Cre-ERT2 mice; assay type: in vivo, mouse; settings: tamoxifen-induced LIF expression; i.p. 3 days before 12 Gy IR; 72 h after irradiation
Procedure: Eight-twelve-week-old male and female LIF-tg^flox/+/Cre-ERT2 mice were injected (i.p.) with tamoxifen ([…] body weight for male and […] body weight for female) to induce LIF expression 3 days before irradiation (D-3). Age- and gender-matched LIF-tg^flox/+/Cre-ERT2 mice were injected with corn oil as control on D-3. On D0 mice were subject to 12 Gy-whole-body irradiated. Mouse intestine tissue was collected at 72 h after irradiation (D3). The levels of Ki67 in intestinal epithelium were determined by immunohistochemistry (IHC) staining. n=6 in Tamoxifen treated group, n=4 in control group.

[5] = molecular target: T1, LIF receptor (LIFR) (Homo sapiens, UniProt P42702); settings: cited from earlier work
T1 sequence (P42702 45-1097): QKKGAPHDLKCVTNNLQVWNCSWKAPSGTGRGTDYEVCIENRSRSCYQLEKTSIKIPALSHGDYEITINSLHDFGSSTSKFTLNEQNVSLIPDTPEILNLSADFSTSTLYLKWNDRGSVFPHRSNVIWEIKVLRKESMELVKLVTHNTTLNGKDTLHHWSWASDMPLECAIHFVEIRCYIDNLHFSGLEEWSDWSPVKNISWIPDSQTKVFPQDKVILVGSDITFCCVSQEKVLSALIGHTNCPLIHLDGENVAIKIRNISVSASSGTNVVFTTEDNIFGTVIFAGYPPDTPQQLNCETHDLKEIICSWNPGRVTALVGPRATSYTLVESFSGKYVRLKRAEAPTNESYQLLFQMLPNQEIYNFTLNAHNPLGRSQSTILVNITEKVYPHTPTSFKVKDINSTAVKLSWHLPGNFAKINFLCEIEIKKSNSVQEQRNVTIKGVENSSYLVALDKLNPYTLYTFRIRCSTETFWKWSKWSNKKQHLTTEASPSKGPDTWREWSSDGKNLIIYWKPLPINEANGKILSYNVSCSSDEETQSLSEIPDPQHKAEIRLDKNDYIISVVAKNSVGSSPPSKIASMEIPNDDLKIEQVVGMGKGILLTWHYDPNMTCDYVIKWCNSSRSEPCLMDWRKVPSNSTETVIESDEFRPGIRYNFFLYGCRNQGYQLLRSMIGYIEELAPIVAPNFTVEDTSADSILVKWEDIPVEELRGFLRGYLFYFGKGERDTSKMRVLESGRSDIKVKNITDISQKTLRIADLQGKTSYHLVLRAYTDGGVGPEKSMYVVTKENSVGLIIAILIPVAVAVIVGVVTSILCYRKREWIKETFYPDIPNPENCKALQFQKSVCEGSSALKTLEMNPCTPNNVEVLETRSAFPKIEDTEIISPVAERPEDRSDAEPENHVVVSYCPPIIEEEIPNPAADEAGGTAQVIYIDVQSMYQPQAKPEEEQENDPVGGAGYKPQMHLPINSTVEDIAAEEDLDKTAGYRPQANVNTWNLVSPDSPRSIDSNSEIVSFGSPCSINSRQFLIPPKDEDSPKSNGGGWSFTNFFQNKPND

[6] = molecular target: T2, gp130 (LIF:LIFR:gp130 complex) (Homo sapiens, UniProt P40189+P42702); settings: after binding to LIFR; cited from earlier work
T2 sequence (P40189 23-918): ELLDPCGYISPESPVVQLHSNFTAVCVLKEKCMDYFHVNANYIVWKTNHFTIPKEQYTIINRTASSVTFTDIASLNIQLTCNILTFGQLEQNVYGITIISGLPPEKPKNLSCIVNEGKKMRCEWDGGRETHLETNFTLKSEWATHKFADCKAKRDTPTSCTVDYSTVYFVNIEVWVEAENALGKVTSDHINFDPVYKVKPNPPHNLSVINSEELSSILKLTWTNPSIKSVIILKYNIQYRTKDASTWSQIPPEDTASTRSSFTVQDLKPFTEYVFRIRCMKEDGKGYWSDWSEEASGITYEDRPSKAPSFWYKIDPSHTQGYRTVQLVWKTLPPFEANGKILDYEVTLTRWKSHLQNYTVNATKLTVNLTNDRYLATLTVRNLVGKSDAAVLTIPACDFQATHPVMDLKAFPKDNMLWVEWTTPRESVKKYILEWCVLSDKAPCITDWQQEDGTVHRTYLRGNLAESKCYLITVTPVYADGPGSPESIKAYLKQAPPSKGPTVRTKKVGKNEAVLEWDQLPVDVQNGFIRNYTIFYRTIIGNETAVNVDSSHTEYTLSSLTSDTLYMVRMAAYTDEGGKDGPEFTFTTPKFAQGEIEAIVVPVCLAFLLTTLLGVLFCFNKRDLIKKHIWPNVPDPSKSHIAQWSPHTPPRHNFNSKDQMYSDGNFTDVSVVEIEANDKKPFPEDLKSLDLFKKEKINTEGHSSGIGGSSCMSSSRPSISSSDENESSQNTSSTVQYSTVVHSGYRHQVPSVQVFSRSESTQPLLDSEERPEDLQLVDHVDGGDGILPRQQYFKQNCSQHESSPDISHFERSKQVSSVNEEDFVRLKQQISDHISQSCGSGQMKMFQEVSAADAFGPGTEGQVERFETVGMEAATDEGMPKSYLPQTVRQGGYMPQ
T2 sequence (P42702 45-1097): T1 sequence (P42702 45-1097)

[7] = single s.c. dose, up to doses of 4 μg/kg, healthy volunteers; cited from earlier work
[8] = patients with advanced cancers; cited from earlier work

Compound: Cc1c[nH]c(-c2cnc(NCCNc3ccc(C#N)cn3)nc2-c2ccc(Cl)cc2Cl)n1 [CHIR99021]
- growth, cell proliferation and stem cell number of WT organoids ([1]; CHIR99021 3 μM, compared with LIF KO organoids): much less pronounced effect
- growth, cell proliferation and stem cell number of LIF KO organoids ([2]; CHIR99021 3 μM): greatly improved

Compound: NC1(C(=O)N[C@@H](CCO)c2ccc(Cl)cc2)CCN(c2ncnc3[nH]ccc23)CC1 [Capivasertib]
- growth of WT organoids and cell proliferation (surface area, organoid formation, Ki67+ cells) ([1]; inhibitor 1 μM, WT organoids): greatly inhibited
- stem cell number in WT organoids [1]: greatly decreased
- rescue effect of recombinant LIF on the growth of LIF KO organoids ([2]; inhibitor 1 μM with LIF 50 ng/ml): largely abolished
- inhibitory effects on organoid growth and cell proliferation in LIF KO organoids ([2]; inhibitor 1 μM, compared with WT organoids): much less pronounced
- stem cell number in LIF KO organoids [2]: much less pronounced inhibitory effect
- mRNA levels of Axin2, Ascl1, Olfm4 and Lgr5 in LIF KO organoids [3]: less pronounced effect
- mRNA levels of Axin2, Ascl1, Olfm4 and Lgr5 in WT organoids [3]: significantly decreased

Compound: COc1nccc(-c2c(-c3ccc(F)cc3)ncn2C2CCNCC2)n1 [SB242235]
- growth and proliferation of WT organoids [1]: did not have a significant effect
- effect on ISC functions in WT organoids [1]: no obvious effect
- growth and proliferation of LIF KO organoids [2]: did not have a significant effect

Compound: CCOC(=O)C1=C(N)Oc2ccc(Cl)cc2C1C(C#N)C(=O)OCC (stereo not shown) [SC79]
- growth and cell proliferation of WT organoids ([1]; SC79 5 μM, compared with LIF KO organoids): less pronounced effect
- stem cell number in WT organoids [1]: less pronounced effect
- growth and cell proliferation of LIF KO organoids ([2]; SC79 5 μM): greatly improved
- stem cell number in LIF KO organoids [2]: greatly increased
- mRNA levels of Axin2, Ascl1, Olfm4 and Lgr5 in LIF KO organoids [3]: greatly increased
- mRNA levels of Axin2, Ascl1, Olfm4 and Lgr5 in WT organoids [3]: less pronounced effect

Compound: O=[N+]([O-])c1ccc2c(c1)S(=O)(=O)C=C2 [Stattic]
- growth and proliferation of WT organoids [1]: did not have a significant effect
- effect on ISC functions in WT organoids [1]: very limited effect
- growth and proliferation of LIF KO organoids [2]: did not have a significant effect

Compound: CC/C(=C(\c1ccccc1)c1ccc(OCCN(C)C)cc1)c1ccccc1 [tamoxifen]
- intestinal crypt regeneration (viable crypts), higher than controls [4]: ~50%

Compound: human LIF: Human canonical LIF, accession number P15018, SEQ ID NO: 1
- affinity of binding to LIFR [5]: low nanomolar
- affinity of functional signaling complex with gp130 [6]: picomolar

Compound: rhLIF: Emfilermin is the term used for rhLIF produced in Escherichia coli
- safety and tolerability [7]: safe and well tolerated
- adverse effects on blood progenitor cells [8]: no adverse effects
- hematopoietic recovery after chemotherapy [8]: normal
- safety of administration [8]: safely administered

Reference: US20220096602A1, “LIF THERAPY FOR INDUCING INTESTINAL EPITHELIAL CELL REGENERATION” (Rutgers, the State University of New Jersey, priority 2019, published 2022)
